Measured values from patent publication US20230331781A1, “PAR4 DERIVED PEPTIDES, ANALOGS AND USES THEREOF” (Yissum Research Development Company of the Hebrew …, priority 2019, published 2023).
“Also recorded” adds a separate entry of the source. Numbered stars: 1 amine (or outer) side, 2 acyl side, 3 side chain; on linkers, the order of the positions; unused ones are H or OH. Bridge positions count the residues as written; N and C are the ends. Square brackets hold non-standard residues; d marks the D form. Ends that are not written are not given here. GlyBU(C4) = Gly building unit (N-alpha-functionalized Gly) carrying a C4 alkyl chain (n = m = 4), bridged through a urea group; CO = O=C([*:1])[*:2]

Legend:
Assay type in all cases: cell-based
[1] = target: T1, PAR4-Akt association (Homo sapiens, UniProt P31749); assay: PAR4-Akt association, immunoprecipitation in HEK293 cells transfected with flg-Par4 and AYPGKF activated; details: HEK293 cells, 50 nM-150 μM, FIG. 8A
T1 construct: FLAG; expressed in transfected cells
Method: Experiments shown in FIG. 3A-3C were carried out in MDA-MB-231 cells. […] Unpaired Student's t test was used. This experiment is a representative of three independent experiments performed in triplicates. […] HEK 293T cells were transfected with wt flg-Par4 followed by AYPGKF activation of PAR4. IP was performed using anti fig abs of cells treated or not with CTP4-A peptide and immunoblotting with anti-Akt abs.
FIG. 4A—PH-Akt module alone binds PAR4-C-tail but not mutant R25C. HEK 293 cells were transiently transfected with flg-Par4 construct and either with GFP-PH-Akt domain alone or GFP-R25C. IP of cell lysates following PAR4 AYPGKF activation was carried out using anti-flg abs. Detection of either Akt-PH domain alone associated with PAR4 was performed with anti-GFP. […] FIG. 4C—The PI3K inhibitor […] inhibits the binding of Akt to PAR4. Treatment of HEK 293 cells with LY294002 for various time points or not, following transient transfection with flg-Par4 and AYPGKF activation was performed. Cell lysates were immunoprecipitated with anti-flg antibodies, and anti-Akt was used to assess the association of Akt with the PAR4 C-tail. […] Amino acid residues of PAR4- and PAR2-PH binding motifs. FIG. 4E—mutations inserted into flg-Par4 generated flg-Par4MutE346A. HEK293 cells were transiently transfected with either wt flg-Par4 or flg-Par4MutE346A. IP of cell lysates following PAR4 activation was carried out using anti-flg abs. Detection of PAR4-Akt association was performed by anti Akt Abs. While association with wt Par4 is seen after 5 and 10 min AYPGKF PAR4 activation, when using flg-Par4 E346A no inhibition is seen and effective association with Akt is seen at 30 min activation. FIG. 4F—utations inserted into flg-Par4 generated flg-Par4Mut F347A and flg-Par4Mut D349A. HEK293 cells were transiently transfected with either wt flg-Par4 or flg-Par4Mut F347A or flg-Par4Mut D349A. IP of cell lysates following PAR4 activation was carried out using anti-f/g abs. Detection of PAR4-Akt association was performed by anti Akt Abs. While association with wt Par4 is seen after 5 min AYPGKF PAR4 activation, no such binding is obtained when using either flg-Par4 F347A or flg-Par4D349A.
HEK293 cells were transiently transfected with flg-Par4 followed by AYPGKF PAR4 activation in the presence and absence of PAR4c (4-4) within the range of 50 nM-150 μM. IP of cell lysates following different periods of activation was carried out using anti flg abs. Detection of Akt was performed by anti Akt abs. β-actin serves as a control gene for loading. […] Matrigel invasion before and after AYPGKF PAR4 activation and in the presence and absence of PAR4 c(4-4) inhibitor in the activated PAR4 cells. […] FIG. 8C—Histograms represent quantification of the cells/HPF invaded the Matrigel layer. […]

[2] = system: Lovo colon cancer cells; assay: Matrigel invasion of Lovo colon cancer cells after AYPGKF PAR4 activation; details: PAR4 activated Lovo cells, 50 nM-150 μM, FIGS. 8B and 8C
Method: HEK293 cells were transiently transfected with flg-Par4 followed by AYPGKF PAR4 activation in the presence and absence of PAR4c (4-4) within the range of 50 nM-150 μM. IP of cell lysates following different periods of activation was carried out using anti flg abs. Detection of Akt was performed by anti Akt abs. β-actin serves as a control gene for loading. […] Matrigel invasion before and after AYPGKF PAR4 activation and in the presence and absence of PAR4 c(4-4) inhibitor in the activated PAR4 cells. A range between 50 nM-150 μM PAR4 c(4-4) inhibitor was applied. While ample Matrigel invasion is seen following PAR4 activation, this was attenuated in the presence of the inhibitor in all the concentrations used, similar to control prior to PAR4 activation. FIG. 8C—Histograms represent quantification of the cells/HPF invaded the Matrigel layer. Unpaired Student's t test was used. This experiment is a representative of three independent experiments performed in triplicates. FIG. 8D-8K show Wound-scratch migration assay. Lovo cancer cell-line was grown to confluence. Then, an equal wound scratch was introduced to Lovo cell monolayers. […]
When we analyzed the impact of Pc(4-4) on the capability of activated PAR4 in Lovo colon cancer cell line to invade Matrigel, a robust invasion is seen (FIG. 8B), inhibited in the presence of Pc(4-4). […]

[3] = system: Lovo cancer cell-line; assay: Wound-scratch migration assay, Lovo cell monolayers; details: AYPGKF activated, 24 hr, 150 μM and 300 μM, FIG. 8D-8K
Method: HEK293 cells were transiently transfected with flg-Par4 followed by AYPGKF PAR4 activation in the presence and absence of PAR4c (4-4) within the range of 50 nM-150 μM. IP of cell lysates following different periods of activation was carried out using anti flg abs. Detection of Akt was performed by anti Akt abs. β-actin serves as a control gene for loading. […] Matrigel invasion before and after AYPGKF PAR4 activation and in the presence and absence of PAR4 c(4-4) inhibitor in the activated PAR4 cells. A range between 50 nM-150 μM PAR4 c(4-4) inhibitor was applied. While ample Matrigel invasion is seen following PAR4 activation, this was attenuated in the presence of the inhibitor in all the concentrations used, similar to control prior to PAR4 activation. FIG. 8C—Histograms represent quantification of the cells/HPF invaded the Matrigel layer. Unpaired Student's t test was used. This experiment is a representative of three independent experiments performed in triplicates. FIG. 8D-8K show Wound-scratch migration assay. Lovo cancer cell-line was grown to confluence. Then, an equal wound scratch was introduced to Lovo cell monolayers. Monolayers were serum starved overnight and PAR4 was activated or not with AYPGKF. One hour prior to activation PAR4 c(4-4), either at 150 μM or 300 μM concentrations was added to the monolayers.
Migration was evaluated by “wound scratch assay” applied. […]

[4] = target: T2, PAR2 and Akt (Homo sapiens, UniProt P31749); assay: PAR2-Akt association, immunoprecipitation in HEK293 cells transfected with Par2 and SLIGKV activated; details: HEK 293 cells, flag-hPar2, SLIGKV 200 μM; 150 μM, 1 hr prior to activation; FIG. 11
T2 construct: FLAG; expressed in transfected cells; host or cells: HEK293
Method: HEK293 cells were transiently transfected with Par2 followed by SLIGKV PAR2 activation in the presence and absence of PAR4 c(4-4) at 150 μM. IP of cell lysates following different time of activation was carried out using anti PAR2 abs. Detection of Akt was performed by anti Akt abs. β-actin serves as a control gene for loading.
Briefly, HEK 293 cells were transfected with 0.8 μg flag-hPar2 and serum starved overnight. PAR(4-4) in concentration of 150 μM was applied onto the cell monolayer for 1 hr prior to PAR2 activation (by the peptide SLIGKV—200 μM) for the indicated time periods (overall transfection period is 48 hrs).
The cells (HEK 293) were solubilized and lysed and protein cell lysates (400 μg) were used for immunoprecipitation analysis, as described in Example 4.

T1 sequence (P31749 whole entry): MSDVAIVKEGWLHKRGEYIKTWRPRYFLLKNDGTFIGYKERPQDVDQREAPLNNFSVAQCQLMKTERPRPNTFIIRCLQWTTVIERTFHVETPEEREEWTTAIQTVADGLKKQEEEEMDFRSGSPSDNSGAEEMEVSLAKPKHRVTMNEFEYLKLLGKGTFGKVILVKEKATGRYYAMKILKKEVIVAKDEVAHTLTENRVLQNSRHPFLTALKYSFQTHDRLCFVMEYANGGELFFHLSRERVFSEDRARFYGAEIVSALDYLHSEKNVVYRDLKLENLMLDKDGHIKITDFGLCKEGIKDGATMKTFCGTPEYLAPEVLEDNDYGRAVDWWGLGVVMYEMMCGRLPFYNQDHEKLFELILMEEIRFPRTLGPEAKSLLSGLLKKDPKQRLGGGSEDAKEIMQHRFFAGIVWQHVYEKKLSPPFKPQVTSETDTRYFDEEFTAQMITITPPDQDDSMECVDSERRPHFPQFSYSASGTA
T2 sequence (P31749 whole entry): as above

Pc(4-4): backbone cyclic analog of Formula I, m=n=4, ring size 30 atoms (S[GlyBU(C4)]EFRDK[GlyBU(C4)]; bridge 2-8 via CO; not fully specified; printed as SZ1EFRDKX3)
inhibition of Akt/PKB-PAR4 association (IP) [1]: strong inhibition | inhibition of Akt/PKB-PAR4 association (IP) ([1]; listed as PAR4 c(4-4)): inhibits | inhibition of Matrigel invasion [2]: inhibited | inhibition of Matrigel invasion ([2]; listed as PAR4 c(4-4)): inhibits; also recorded: attenuated | inhibition of migration/proliferation (wound scratch) [3]: marked inhibition | inhibition of migration/proliferation (wound scratch) ([3]; listed as PAR4 c(4-4)): inhibits | inhibition of PAR2-AKT association (IP) [4]: efficiently inhibited
